Measurements taken from patent publication US20070028400A1, “Skin and/or hair treatment agent containing tetrasubstituted cyclohexene compounds” (priority 2003, published 2007).

Test system: primary normal human melanocytes
Assay: Melanogenesis assay (C14-tyrosine incorporation), 3 days incubation
Format: cell-based
Settings: measured as C14-tyrosine incorporation, n=3
Experimental: By way of example, the test for the compound acetyl-retinyliminoethanol is given.
A melanogenesis assay was carried out after incubation for 3 days of primary normal human melanocytes with test substance compared to control. The numbers given in the table indicate the melanogenesis rates based on the untreated control (=100%) (measured as C14-tyrosine incorporation).

With `CC(=O)OCC/N=C/C=C(C)/C=C/C=C(C)/C=C/C1=C(C)CCCC1(C)C` [acetyl-retinyliminoethanol, 2-{[(1E,2E,4E,6E,8E)-3,7-dimethyl-9-(2,6,6-trimethylcyclohex-1-en-1-yl)nona-2,4,6,8-tetraen-1-ylidene]amino}ethyl acetate] the “melanogenesis rate based on the untreated control (=100%), Average” value (0.1 μg/ml test substance) was 117% and the “melanogenesis rate based on the untreated control (=100%), Average” value (1 μg/ml test substance) was 253%.
